Source: US12679843B2, “Pyrrolopyrimidine amines as complement inhibitors” (BioCryst Pharmaceuticals, Inc., priority 2020, dated 2026)

The compounds below were run against Factor D (Homo sapiens, UniProt P00746) (assay: Factor D esterolytic assay (Z-Lys-SBzl thioester substrate, DTNB, 405 nm)). Settings: substrate Z-Lys-SBzl 1.29 mM, 100 mM HEPES, 500 mM NaCl, pH 7.5, 10% DMSO, tested a minimum of three times.
Type: biochemical
Method in brief: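 Human Factor D hydrolysis of Z-Lys-SBzl (1.29 mM) monitored at 405 nm via DTNB thiol detection for 600 s, 690 nm background subtracted. Buffer 100 mM HEPES, 500 mM NaCl, pH 7.5, 10% DMSO; substrate added immediately or after room-temperature preincubation. IC50 from percent inhibition of rate, at least three tests.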

Factor D, sequence (P00746 26-253): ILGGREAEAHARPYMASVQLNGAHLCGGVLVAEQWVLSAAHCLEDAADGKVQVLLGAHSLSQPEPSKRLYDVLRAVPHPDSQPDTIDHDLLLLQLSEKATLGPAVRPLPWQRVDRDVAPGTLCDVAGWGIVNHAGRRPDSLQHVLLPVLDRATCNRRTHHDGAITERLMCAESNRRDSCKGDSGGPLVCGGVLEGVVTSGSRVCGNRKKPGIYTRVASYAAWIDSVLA

`Cc1nc(C(F)(F)F)cc2c3c(N)ncnc3n(CC(=O)N3[C@H](C(=O)Nc4cccc(Br)n4)C[C@@]4(C)C[C@@H]34)c12` [Compound 347a, (1R,3S,5R)-2-(2-(4-amino-8-methyl-6-(trifluoromethyl)-9H-pyrido[4′,3′:4,5]pyrrolo[2,3-d]pyrimidin-9-yl)acetyl)-N-(6-bromopyridin-2-yl)-5-methyl-2-azabicyclo[3.1.0]hexane-3-carboxamide] and `Cc1nc(C(F)(F)F)cc2c3c(N)ncnc3n(CC(=O)N3[C@H](C(=O)Nc4cccc(Cl)n4)C[C@@]4(C)C[C@@H]34)c12` [Compound 351a, (1R,3S,5R)-2-(2-(4-amino-8-methyl-6-(trifluoromethyl)-9H-pyrido[4′,3′:4,5]pyrrolo[2,3-d]pyrimidin-9-yl)acetyl)-N-(6-chloropyridin-2-yl)-5-methyl-2-azabicyclo[3.1.0]hexane-3-carboxamide] cannot be ordered by IC50: < 100 nM for the first, < 100 nM for the second.

`Cc1cc(C(F)(F)F)cc2c3c(N)ncnc3n(CC(=O)N3[C@@H]4C[C@@H]4C[C@H]3C(=O)Nc3cncc(C(F)(F)F)n3)c12` [Compound 348c, (1R,3S,5R)-2-(2-(4-amino-8-methyl-6-(trifluoromethyl)-9H-pyrimido[4,5-b]indol-9-yl)acetyl)-N-(6-(trifluoromethyl)pyrazin-2-yl)-2-azabicyclo[3.1.0]hexane-3-carboxamide] and `Cc1cc(C(F)(F)F)cc2c3c(N)ncnc3n(CC(=O)N3[C@@H]4C[C@@H]4C[C@H]3C(=O)Nc3cccc(C(F)(F)F)n3)c12` [Compound 349c, (1R,3S,5R)-2-(2-(4-amino-8-methyl-6-(trifluoromethyl)-9H-pyrimido[4,5-b]indol-9-yl)acetyl)-N-(6-(trifluoromethyl)pyridin-2-yl)-2-azabicyclo[3.1.0]hexane-3-carboxamide] cannot be ordered by IC50: < 100 nM for the first, < 100 nM for the second.

`Cc1nc(C(F)(F)F)cc2c3c(N)ncnc3n(CC(=O)N3[C@H](C(=O)Nc4cncc(Br)n4)C[C@@]4(C)C[C@@H]34)c12` [Compound 350a, (1R,3S,5R)-2-(2-(4-amino-8-methyl-6-(trifluoromethyl)-9H-pyrido[4′,3′:4,5]pyrrolo[2,3-d]pyrimidin-9-yl)acetyl)-N-(6-bromopyrazin-2-yl)-5-methyl-2-azabicyclo[3.1.0]hexane-3-carboxamide] and `Cc1cc(-c2ccc(C(F)(F)F)nc2)cc2c3c(N)ncnc3n(CC(=O)N3[C@H](C(=O)Nc4cccc(Br)n4)C[C@@]4(C)C[C@@H]34)c12` [Compound 357a, (1R,3S,5R)-2-(2-(4-amino-8-methyl-6-(6-(trifluoromethyl)pyridin-3-yl)-9H-pyrimido[4,5-b]indol-9-yl)acetyl)-N-(6-bromopyridin-2-yl)-5-methyl-2-azabicyclo[3.1.0]hexane-3-carboxamide] cannot be ordered by IC50: < 100 nM for the first, < 100 nM for the second.

`Cc1cc(-c2ccoc2)cc2c3c(N)ncnc3n(CC(=O)N3[C@@H]4C[C@@H]4C[C@H]3C(=O)Nc3cccc(Br)n3)c12` [Compound 352c, (1R,3S,5R)-2-(2-(4-amino-6-(furan-3-yl)-8-methyl-9H-pyrimido[4,5-b]indol-9-yl)acetyl)-N-(6-bromopyridin-2-yl)-2-azabicyclo[3.1.0]hexane-3-carboxamide] and `Cc1cc(-c2ccoc2)cc2c3c(N)ncnc3n(CC(=O)N3[C@H](C(=O)Nc4cccc(Br)n4)C[C@@]4(C)C[C@@H]34)c12` [Compound 353a, (1R,3S,5R)-2-(2-(4-amino-6-(furan-3-yl)-8-methyl-9H-pyrimido[4,5-b]indol-9-yl)acetyl)-N-(6-bromopyridin-2-yl)-5-methyl-2-azabicyclo[3.1.0]hexane-3-carboxamide] cannot be ordered by IC50: < 100 nM for the first, < 100 nM for the second.

`Cc1cc(-c2ccnc(C(F)(F)F)c2)cc2c3c(N)ncnc3n(CC(=O)N3[C@@H]4C[C@@H]4C[C@H]3C(=O)Nc3cccc(Br)n3)c12` [Compound 354c, (1R,3S,5R)-2-(2-(4-amino-8-methyl-6-(2-(trifluoromethyl)pyridin-4-yl)-9H-pyrimido[4,5-b]indol-9-yl)acetyl)-N-(6-bromopyridin-2-yl)-2-azabicyclo[3.1.0]hexane-3-carboxamide] and `Cc1cc(-c2ccc(C(F)(F)F)nc2)cc2c3c(N)ncnc3n(CC(=O)N3[C@@H]4C[C@@H]4C[C@H]3C(=O)Nc3cccc(Br)n3)c12` [Compound 356c, (1R,3S,5R)-2-(2-(4-amino-8-methyl-6-(6-(trifluoromethyl)pyridin-3-yl)-9H-pyrimido[4,5-b]indol-9-yl)acetyl)-N-(6-bromopyridin-2-yl)-2-azabicyclo[3.1.0]hexane-3-carboxamide] cannot be ordered by IC50: < 100 nM for the first, < 100 nM for the second.

First: Cc1cc(-c2ccnc(C(F)(F)F)c2)cc2c3c(N)ncnc3n(CC(=O)N3[C@H](C(=O)Nc4cccc(Br)n4)C[C@@]4(C)C[C@@H]34)c12 [Compound 355a, (1R,3S,5R)-2-(2-(4-amino-8-methyl-6-(2-(trifluoromethyl)pyridin-4-yl)-9H-pyrimido[4,5-b]indol-9-yl)acetyl)-N-(6-bromopyridin-2-yl)-5-methyl-2-azabicyclo[3.1.0]hexane-3-carboxamide]
Second: Cc1cc(-c2cccnc2C(F)(F)F)cc2c3c(N)ncnc3n(CC(=O)N3[C@H](C(=O)Nc4cccc(Br)n4)C[C@@]4(C)C[C@@H]34)c12 [Compound 358c, (1R,3S,5R)-2-(2-(4-amino-8-methyl-6-(2-(trifluoromethyl)pyridin-3-yl)-9H-pyrimido[4,5-b]indol-9-yl)acetyl)-N-(6-bromopyridin-2-yl)-5-methyl-2-azabicyclo[3.1.0]hexane-3-carboxamide]
The IC50 of the first is lower: < 100 nM for the first, 100 to 1000 nM for the second. The first is the more potent here.

`Cc1cc(-c2ccco2)cc2c3c(N)ncnc3n(CC(=O)N3[C@H](C(=O)Nc4cccc(Br)n4)C[C@@]4(C)C[C@@H]34)c12` [Compound 359c, (1R,3S,5R)-2-(2-(4-amino-6-(furan-2-yl)-8-methyl-9H-pyrimido[4,5-b]indol-9-yl)acetyl)-N-(6-bromopyridin-2-yl)-5-methyl-2-azabicyclo[3.1.0]hexane-3-carboxamide] and `Cc1cc(C2CC2)cc2c3c(N)ncnc3n(CC(=O)N3[C@H](C(=O)Nc4cccc(Br)n4)C[C@@]4(C)C[C@@H]34)c12` [Compound 361a, (1R,3S,5R)-2-(2-(4-amino-6-cyclopropyl-8-methyl-9H-pyrimido[4,5-b]indol-9-yl)acetyl)-N-(6-bromopyridin-2-yl)-5-methyl-2-azabicyclo[3.1.0]hexane-3-carboxamide] cannot be ordered by IC50: < 100 nM for the first, < 100 nM for the second.

`Cc1cc(C2CC2)cc2c3c(N)ncnc3n(CC(=O)N3[C@@H]4C[C@@H]4C[C@H]3C(=O)Nc3cccc(Br)n3)c12` [Compound 360c, (1R,3S,5R)-2-(2-(4-amino-6-cyclopropyl-8-methyl-9H-pyrimido[4,5-b]indol-9-yl)acetyl)-N-(6-bromopyridin-2-yl)-2-azabicyclo[3.1.0]hexane-3-carboxamide] and `Cc1cc(C(F)(F)F)nc2c3c(N)ncnc3n(CC(=O)N3[C@@H]4C[C@@H]4C[C@H]3C(=O)Nc3cccc(Br)n3)c12` [Compound 362f, (1R,3S,5R)-2-(2-(4-amino-8-methyl-6-(trifluoromethyl)-9H-pyrido[2′,3′:4,5]pyrrolo[2,3-d]pyrimidin-9-yl)acetyl)-N-(6-bromopyridin-2-yl)-2-azabicyclo[3.1.0]hexane-3-carboxamide] cannot be ordered by IC50: < 100 nM for the first, < 100 nM for the second.
